Literature values, collected in US20140377346A1, “BOSENTAN CONTROLLED RELEASE ORAL PREPARATION” (HANALL BIOPHARMA CO., LTD., priority 2012, published 2014).
Where two headings read alike, the source gives them in different places.

water needed to dissolve 0.1 mg of bosentan (pH 1.0): ≥ 100 mL | water needed to dissolve 0.1 mg of bosentan (pH 5.0): ≥ 50 mL | water needed to dissolve 0.1 mg of bosentan (pH 7.5): approximately 0.3 ml
SMILES: COc1ccccc1Oc1c(NS(=O)(=O)c2ccc(C(C)(C)C)cc2)nc(-c2ncccn2)nc1OCCO [bosentan, 4-tert-butyl-N-[6-(2-hydroxy-ethoxy)-5-(2-methoxy-phenoxy)-2-(pyrimidin-2-yl)-pyrimidin-4-yl]-benzenesulfonamide]
